“Also recorded” adds a separate entry of the source.
How the values were obtained:
[1] = test system: (CUG)23 RNA hairpin; test: 2-Aminopurine fluorescence assay of hairpin RNA unfolding; assay type: biochemical; settings: for modification of the hairpin loops formed by the CUG repeats (2-AP fluorescence): (CUG)23 RNA, dose-range
Experimental: FIG. 7. […] Measurements of the fluorescence emitted (Y-axis), measured as relative fluorescence units (RFU), by 2-aminopurine in a (CUG)23 RNA (1 μM) in the presence of different compounds (dose-range approach), relative to the fluorescence emitted by the free RNA. […] These effects were not observed when incubating the RNA with DMSO (not shown), or with the small molecule pentamidine, published as a compound able to disrupt MBNL1 binding to CUG hairpins (Warf M B et al. Proc. Natl. Acad. Sci. USA 106:18551-56 (2009)). * indicates p-value <0.05 ** p-value <0.005 *** p-value p<0.0005.
Aminopurine Fluorescence assay to detect hairpin double strand RNA unfolding. An aliquot of 2-aminopurine (2AP)-CUG23 RNA (1 μM in binding buffer) was heated at 90° C. for 3 min, placed on ice, and further diluted to 30 nM in a final volume of 1 mL in binding buffer.

[2] = test system: MBNL1; test: Visualization and quantification of MBNL1 release in DM1 fibroblasts; assay type: cell-based, human; settings: 100 μM
Experimental: FIG. 4. Visualization and quantification of MBNL1 release (A). Visualization of MBNL1 release for VLT002: Upper row: Untreated DM1 fibroblasts with MBNL1 localizing as ribonuclear foci (see dots in middle and right pictures) to the nucleus (DAPI, detected as gray spherical shadow in left and right pictures). […] (B) Quantification of the area (into the nucleus), where MBNL1 present (Photoshop software), reflects the MBNL1 release after VLT002, VLT025, VLT045, VLT049 and VLT040 treatment (100 μM).
At the same time human cells were recollected for foci counting. Some (150,000-300,000) were prepared for Muscleblind (MBNL1) detection (see FIG. 4). After PBS washes, cells were probed overnight, at 4° C. with anti-MBNL1 antibody (1:5000 dilutions, A2764 antibody) in 1×PBS. After washing cells with 1×PBS, cells were incubated with goat anti-rabbit Alexa 488 (1:500 dilution) for 2 h at RT. Cells were washed 2 times, for 10 min at room temperature with 1×PBS and then mounted onto glass slides using a hard-set mounting media that contains DAPI (Vectashield). Cells were imaged on a Leica microscope.

[3] = test system: FAM-(CUG)10 RNA; test: Gel retardation assay (fluorescence EMSA) with FAM-(CUG)10; assay type: binding
Experimental: FIG. 6. Study of the binding of some compounds of Formula I (VLT002, VLT025 and VLT026) to FAM-(CUG)10 (repeat tract present in DM1, HDL2, SCA8 diseases) by means of gel retardation assays.
Fluorescence Electrophoretic Mobility Shift Assay to test RNA-compound binding. Briefly, an aliquot of carboxyfluorescein (FAM)-CUG10 RNA (DM1, HDL2, SCA8; see FIG. 6) was heated at 70° C. for 5 min and diluted to 300 nM. The binding reaction with compounds was then carried out as described in (Garcia-Lopez A et al. Proc. Natl. Acad. Sci. USA. 108(29):11866-71 (2011)). The reaction mix was loaded onto 8% polyacrylamide nondenaturing gels, and electrophoresis was conducted at 4° C. in TB 1× for approximately 30 min at 240V, followed by fluorescence visualization. Quantification of the free RNA band intensity was carried out using the ImageJ software. A non-linear regression analysis was used to calculate EC50, based on a total of three experimental replicates. Same approach was developed with (FAM)-CCUG8 (DM2), CAG10 (SCA3), CGG10 (FXTAS), GGGGCC5 (ALS/FSD), UGGAA6 (SCA31) probes (see FIG. 9).

[4] = test system: ribonuclear foci in MyoD transformed fibroblasts derived from DM1 patients (>300 CTG repeats); test: FISH detection of aberrant ribonuclear foci in human DM1 fibroblasts; assay type: cell-based; settings: 24 h treatment, vs no treatment
Experimental: FIG. 1. Quantification of aberrant ribonuclear foci (DM1 disease hallmark) in human DM1 fibroblasts. Treatments with the compounds of Formula I were performed (VLT002, VLT015, VLT025, VLT024, VLT042, VLT040, VLT023, VLT026, VLT048, VLT045, VLT043, VLT049, VLT051 VLT053 and VLT056). (A) Number (medium) of foci/nuclei (No treatment vs. compound treatment). (B) Number of cells without foci (No treatment vs. compound treatment). n=100 minimum number of cells counted. T-Student test: * indicates p-value <0.05 ** p-value p<0.005 *** p-value p<0.0005.
After screening identification of the compounds of the invention (see FIG. 10), main validation was done using Fluorescence In Situ Hybridization (FISH) detection of aberrant aggregation of ribonuclear foci in cell lines from DM1 patients (see FIG. 1) and in DM1 Drosophila model (see FIG. 2) (Garcia-Lopez et al., Proc. Natl. Acad. Sci. USA. 108(29):11866-71 (2011)). Briefly, regarding human cells, it was used MyoD transformed fibroblasts derived from clinically diagnosed DM1 patients (>300 CTG repeats) routinely growing in DMEM supplemented with 10% heat-inactivated fetal bovine serum and maintained at 37° C. in a humidified incubator containing 5% CO2. To detect ribonuclear foci, cells were cultured over cover-slides in flat bottomed 24-well plates, after 24 h compounds of the invention were added to the cells at desiderate concentration, 24 h later in situ hybridization was done by fixing with 4% paraformaldehyde (PFA) 15 min at room temperature, and washed and stored in 70% ethanol. Cells were rehydrated with PBS and pre-hybridized 10 min at room temperature with a pre-hybridization buffer (formamide 30%, 2× saline-sodium citrate buffer (SSC)). Hybridization was performed in a light-proof wet chamber using the same pre-hybridization buffer supplemented with 0.02% bovine serum albumin (BSA), 1 mg/ml yeast tRNA (Sigma), 2 mM sodium (meta)vanadate, 1 mg/ml sperm DNA, 10% dextran sulfate and 1 ng/μl RNase free HPCL-purified Cy3-labeled (CAG)10 RNA. After hybridization cells were washed 2×15 minutes at 45° C. with the pre-hybridization buffer and washed with 1×PBS at room temperature. Slides were mounted with Vectashield solution with DAPI and number of foci by cell and number of cells with/without foci (see FIG. 1) were counted in a minimum of 100 cells for each treatment and concentration tested with a 63× objective in a Leica microscope. Same FISH approach was performed in Drosophila DM1 flies, where thoraces were embedded in OCT and transversal sections were taken with a Leica CM 15105 cryomicrotome. Sections were processed for in situ hybridization and counting for number of foci by cell with the same Cy3-labeled (CAG)10 probe (see FIG. 2).

SMILES	modification of the hairpin loops formed by the CUG repeats (2-AP fluorescence) [1]	MBNL1 sequestration / MBNL1 release (nuclear area where MBNL1 present) [2]	formation of foci (MBNL1 ribonuclear foci) [2]	binding to FAM-CUG10 [3]	aberrant ribonuclear foci: number of foci/nuclei (A) and/or number of cells without foci (B) [4]	decreases in the fluorescence of 2-AP ([1]; change to more structured double-stranded)
CN(C)CCc1cc2c(c3c1ccc1ccccc13)OCO2 [VLT002, Stephenanthrine]	modify the hairpin loops	MBNL1 sequestration is relieved; also recorded: relieve MBNL1 sequestration	reduced formation of the foci; also recorded: effectively reduce the formation of foci	bind to FAM-CUG10	significant reduction	
C[N+](C)(C)CCc1cc2c(c3c1ccc1ccccc13)OCO2 [VLT025]	modify the hairpin loops	relieve MBNL1 sequestration	effectively reduce the formation of foci	bind to FAM-CUG10	significant reduction	noteworthy decreases

Source: US20160194274A1, “PHENANTHRENE DERIVATIVES FOR USE AS MEDICAMENTS” (VALENTIA BIOPHARMA, priority 2012, published 2016)
